Test results: patent US8791132B2, “Compounds and methods for treatment of hypertension” (Medivation Technologies, Inc., priority 2011, dated 2014)
Values joined by “and” are separate entries in the source; they are usually repeats but may differ in a detail not shown here. Identical values can stand only once.

What was measured:
[1] = target: T1, human recombinant adrenergic α2B receptor (Homo sapiens, UniProt P18089); assay: Radioligand binding, adrenergic α2B ([3H]Rauwolscine); conditions: for Percentage inhibition of ligand binding, Adrenergic α2B / inhibition at 0.03 µM: compound at 0.03 μM; for Percentage inhibition of ligand binding, Adrenergic α2B: 0.03 µM
T1 construct: expressed in transfected cells; host or cells: CHO-K1
T1 sequence (P18089 1-450): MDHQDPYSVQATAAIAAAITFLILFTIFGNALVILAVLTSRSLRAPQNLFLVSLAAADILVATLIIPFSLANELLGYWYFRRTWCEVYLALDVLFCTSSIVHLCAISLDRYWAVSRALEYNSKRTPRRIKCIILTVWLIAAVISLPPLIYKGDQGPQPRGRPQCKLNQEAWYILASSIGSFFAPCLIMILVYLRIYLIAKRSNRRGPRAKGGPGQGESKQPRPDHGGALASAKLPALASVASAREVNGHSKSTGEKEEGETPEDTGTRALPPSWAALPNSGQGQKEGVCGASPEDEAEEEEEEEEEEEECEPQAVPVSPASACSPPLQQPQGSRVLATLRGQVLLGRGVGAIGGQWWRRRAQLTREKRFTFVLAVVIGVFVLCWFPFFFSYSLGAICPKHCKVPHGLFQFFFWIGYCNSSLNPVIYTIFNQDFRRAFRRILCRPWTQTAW
Procedure, shortened: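 Values are percent inhibition of specific radioligand binding. The receptor, expressed in CHO-K1 cells, was exposed to 2.5 nM [3H]Rauwolscine at 25° C for 60 min, with 10 μM Prazosin marking non-specific binding.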

[2] = target: T2, human recombinant adrenergic α2A receptor (Homo sapiens, UniProt P08913); assay: Radioligand binding, adrenergic α2A ([3H]MK-912); conditions: compound at 0.1 μM, [3H]MK-912, repeat assays, each datapoint shown; for Percentage inhibition of ligand binding, Adrenergic α2A: 0.1 µM; for inhibition at 0.1 µM: read-out: Percentage inhibition of ligand binding, Adrenergic α2A
T2 construct: expressed in transfected cells; host or cells: insect Sf9 cells
T2 sequence (P08913 1-465): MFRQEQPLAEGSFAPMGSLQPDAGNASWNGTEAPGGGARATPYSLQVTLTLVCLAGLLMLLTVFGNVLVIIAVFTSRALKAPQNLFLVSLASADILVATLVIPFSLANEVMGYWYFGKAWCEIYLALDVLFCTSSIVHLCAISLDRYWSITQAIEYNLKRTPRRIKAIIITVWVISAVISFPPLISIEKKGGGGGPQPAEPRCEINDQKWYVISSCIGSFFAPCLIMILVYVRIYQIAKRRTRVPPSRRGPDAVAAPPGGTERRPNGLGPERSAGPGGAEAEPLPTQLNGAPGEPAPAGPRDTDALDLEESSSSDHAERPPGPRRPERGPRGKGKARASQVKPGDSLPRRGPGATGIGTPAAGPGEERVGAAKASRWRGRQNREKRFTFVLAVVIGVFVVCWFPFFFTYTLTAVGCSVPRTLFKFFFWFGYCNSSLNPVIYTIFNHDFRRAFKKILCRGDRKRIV
Procedure, shortened: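 Sf9-expressed receptor was incubated with compound for 60 min at 25 °C in modified Tris-HCl buffer, pH 7.4. Nonspecific binding was taken as that remaining with 10 μM WB-4101.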

[3] = target: T3, rat adrenergic α1B receptor (Rattus norvegicus, UniProt P15823); assay: Radioligand binding, adrenergic α1B ([3H]Prazosin); conditions: compound at 0.1 μM, [3H]Prazosin, repeat assays, each datapoint shown; for inhibition at 0.1 µM: read-out: Percentage inhibition of ligand binding, Adrenergic α1B
T3 construct: rat adrenergic α1B receptor obtained from Wistar Rat liver; from tissue; host or cells: Wistar rat liver
T3 sequence (P15823 1-515): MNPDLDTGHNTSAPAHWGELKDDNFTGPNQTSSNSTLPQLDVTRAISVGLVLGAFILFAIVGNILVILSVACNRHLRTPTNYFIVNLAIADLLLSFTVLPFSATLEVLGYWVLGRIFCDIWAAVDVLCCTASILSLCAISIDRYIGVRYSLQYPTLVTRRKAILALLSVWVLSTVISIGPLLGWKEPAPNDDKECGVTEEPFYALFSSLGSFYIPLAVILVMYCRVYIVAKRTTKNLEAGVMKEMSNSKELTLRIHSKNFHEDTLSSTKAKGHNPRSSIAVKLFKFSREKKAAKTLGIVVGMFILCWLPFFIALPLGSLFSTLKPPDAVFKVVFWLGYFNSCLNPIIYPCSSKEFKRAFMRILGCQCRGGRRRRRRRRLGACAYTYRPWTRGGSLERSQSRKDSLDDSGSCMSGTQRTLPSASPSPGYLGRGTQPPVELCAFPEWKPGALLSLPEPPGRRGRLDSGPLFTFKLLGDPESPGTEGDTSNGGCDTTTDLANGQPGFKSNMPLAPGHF
Procedure, shortened: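 Incubation ran 60 min at 25 °C in Tris-HCl buffer (50 mM, pH 7.4, 0.5 mM EDTA) with Wistar rat liver α1B receptor. 10 μM phentolamine set non-specific binding.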

[4] = [3H]Rauwolscine, repeat assays, each datapoint shown
[5] = [3H]Rauwolscine, repeat assays, each datapoint shown, read-out: Percentage inhibition of ligand binding, Adrenergic α2B

| Structure (SMILES) | Percentage inhibition of ligand binding, Adrenergic α2B [1, 4] | Percentage inhibition of ligand binding, Adrenergic α2A [2] | Percentage inhibition of ligand binding, Adrenergic α1B ([3]; 0.1 µM) | also measured |
| --- | --- | --- | --- | --- |
| Cc1ccc2c(c1)c1c(n2CC(C)(O)c2ccccn2)CN(C)CC1 (single isomer, unassigned) [16b, 1-(2,6-dimethyl-1,2,3,4-tetrahydro-β-carbolin-9-yl)-2-pyridin-2-yl-propan-2-ol] | 2% | 2% | 16% | – |
| CN1Cc2c(n(CC(O)c3ccncc3)c3ncccc23)C(C)(C)C1 (single isomer, unassigned) [17a, 1-pyridin-4-yl-2-(6,8,8-trimethyl-5,6,7,8-tetrahydro-1,6,9-triaza-fluoren-9-yl)-ethanol] | 32% | 19% | 13% | – |
| CN1Cc2c(n(CC(O)c3ccncc3)c3ncccc23)C(C)(C)C1 (single isomer, unassigned) [17b, 1-pyridin-4-yl-2-(6,8,8-trimethyl-5,6,7,8-tetrahydro-1,6,9-triaza-fluoren-9-yl)-ethanol] | 20% | 9% | 16% | – |
| Cc1ccc2c(c1)c1c(n2CC(O)c2ccc(F)cc2)CN(C)CC1 (single isomer, unassigned) [18a, 2-(2,6-dimethyl-1,2,3,4-tetrahydro-β-carbolin-9-yl)-1-(4-fluoro-phenyl)-ethanol] | – | – | 55% | inhibition at 0.03 µM [1, 5]: 54%; inhibition at 0.1 µM [2]: 50% |
| Cc1ccc2c(c1)c1c(n2CC(O)c2ccc(F)cc2)CN(C)CC1 (single isomer, unassigned) [18b, 2-(2,6-dimethyl-1,2,3,4-tetrahydro-β-carbolin-9-yl)-1-(4-fluoro-phenyl)-ethanol] | 61% | 32% | 87% | – |
| Cc1ccc2c(c1)c1c(n2CC(C)(O)c2ccncc2)CN(C)CC1 (single isomer, unassigned) [19a, 1-(2,6-dimethyl-1,2,3,4-tetrahydro-β-carbolin-9-yl)-2-pyridin-4-yl-propan-2-ol] | 75% | 21% | – | inhibition at 0.1 µM [3]: 75% |
| Cc1ccc2c(c1)c1c(n2CC(C)(O)c2ccncc2)CN(C)CC1 (single isomer, unassigned) [19b, 1-(2,6-dimethyl-1,2,3,4-tetrahydro-β-carbolin-9-yl)-2-pyridin-4-yl-propan-2-ol] | 27% | 9% | 62% | – |
| COc1ccc(C(O)Cn2c3c(c4cc(C)ccc42)CCN(C)C3)cc1 (single isomer, unassigned) [20a, 2-(2,6-dimethyl-1,2,3,4-tetrahydro-β-carbolin-9-yl)-1-(4-methoxy-phenyl)-ethanol] | – | – | 67% | inhibition at 0.03 µM [1, 5]: 28%; inhibition at 0.1 µM [2]: 29% |
| COc1ccc(C(O)Cn2c3c(c4cc(C)ccc42)CCN(C)C3)cc1 (single isomer, unassigned) [20b, 2-(2,6-dimethyl-1,2,3,4-tetrahydro-β-carbolin-9-yl)-1-(4-methoxy-phenyl)-ethanol] | 36% | 28% | 94% | – |
| Cc1ccc2c(c1)c1c(n2CC(O)c2cccnc2)CCN(CCO)C1 (single isomer, unassigned) [21a] | −2% | −1% | 5% | – |
| Cc1ccc2c(c1)c1c(n2CC(O)c2cccnc2)CCN(CCO)C1 (single isomer, unassigned) [21b] | 1% | −3% | −2% | – |
| Cc1ccc2c(c1)c1c(n2CC(O)c2ccccn2)CN(C)CC1 (single isomer, unassigned) [22a] | – | 16% | 19% | inhibition at 0.03 µM [1, 5]: 22% |
| Cc1ccc2c(c1)c1c(n2CC(O)c2ccccn2)CN(C)CC1 (single isomer, unassigned) [22b] | 30% | 0% | 9% | – |
| CN1CCc2c(c3cc(C(C)(C)O)ccc3n2CC(O)c2ccncc2)C1 (single isomer, unassigned) [23a, 2-(2,3,4,5-tetrahydro-5-(2-hydroxy-2-(pyridin-4-yl)ethyl)-2-methyl-1H-pyrido[4,3-b]indol-8-yl)propan-2-ol] | 6% | 4% | −20% | – |
| CN1CCc2c(c3cc(C(C)(C)O)ccc3n2CC(O)c2ccncc2)C1 (single isomer, unassigned) [23b, 2-(2,3,4,5-tetrahydro-5-(2-hydroxy-2-(pyridin-4-yl)ethyl)-2-methyl-1H-pyrido[4,3-b]indol-8-yl)propan-2-ol] | −3% | 1% | 4% | – |
| Cc1ccc2c(c1)c1c(n2CC(C)(O)c2cccnc2)CCNC1 (single isomer, unassigned) [24a] | 63% | – | – | inhibition at 0.1 µM [2]: 8%; inhibition at 0.1 µM [3]: 8% |
| Cc1ccc2c(c1)c1c(n2CC(C)(O)c2cccnc2)CCNC1 (single isomer, unassigned) [24b] | 29% | 15% | – | Percentage inhibition of ligand binding, Adrenergic α1B [3]: 8% |
| Cc1cnc2c(c1)c1c(n2CC(C)(O)c2cccnc2)CCN2CCCC12 (single isomer, unassigned) [26b] | 75% and 88% | 12% | 15% | inhibition at 0.1 µM ([1]; compound at 0.1 μM, [3H]Rauwolscine, repeat assays, each datapoint shown, read-out: Percentage inhibition of ligand binding, Adrenergic α2B): 100%; Ki ([1]; read-out: Ki α2B): 3.06 nM |
| Cc1cnc2c(c1)c1c(n2CC(C)(O)c2cccnc2)CCN2CCCC12 (single isomer, unassigned) [26c] | 1% and 7% | 19% | 1% | – |
| Cc1cnc2c(c1)c1c(n2CC(C)(O)c2cccnc2)CCN2CCCC12 (single isomer, unassigned) [26d] | 6% and 11% | 0% | −2% | – |
